Measured values published in patent US20260151434A1, “COMPOSITIONS FOR THE TREATMENT OF DISEASE” (priority 2022, published 2026).
Values belong to the molecule of their own block, whether it stands above or below them. Bridge positions count the residues as written; N and C are the ends. Square brackets hold non-standard residues; d marks the D form. Triazole bridges read from a SMILES are 1,4-linked. Peptide text beside a SMILES is read from it. * marks the point of attachment. Benzoyl(3,5-(OH)2) = O=C(c1cc(O)cc(O)c1)*; Lys(N3) = [N-]=[N+]=NCCCC[C@H](N)C(=O)O; dPhe(4-F) = N[C@H](Cc1ccc(F)cc1)C(=O)O; Nle = CCCC[C@H](N)C(=O)O; Pra = C#CC[C@H](N)C(=O)O

Key:
Solubility comparison = type: physicochemical
Source text: The MCR agonists in vivo ocular permeability should allow for concentrations well exceeding EC50 values.

[1] = rabbit, in vivo
Method: (§1) Animals were acclimated to the study and, upon completion of the acclimation period, each animal was physically examined for determination of suitability for study participation. […] Animals were uniquely identified by corresponding cage card number and ear tag.
(§2) The designated peptide formulations (35 μL) were administered to the eye of each animal using a calibrated pipette. With the animal manually restrained, the upper eyelid of the eye was gently elevated to expose the cornea. Treatment was then applied to the cornea without contacting the eye with the pipette tip. The animal was then allowed to blink several times while still manually restrained to distribute the applied solution over the eye prior to being returned to the cage. Treatment was administered once daily (QD) or twice daily (BID) with approximately 8 hours between BID doses. Group 1 was administered a single dose, Group 2 received 4 doses, Group 3 received 8 doses. Samples were collected from 3 animals/group 30 min, 1 hr, 2 hr, 4 hr, and 8 hr post-last dose and from 2 animals/group 24 hours post-last dose.
(§3) Following euthanasia, eyes were enucleated, rinsed 2× with fresh ice-cold PBS, and dabbed dry with gauze. Aqueous humor was removed via a 27- or 30-gauge syringe, placed into a pre-weighted 2 mL polypropylene tube, reweighed, and snap frozen by immersion in liquid nitrogen. The cornea was harvested fresh from each eye, placed into a pre-weighted re-enforced 2 mL polypropylene tube, re-weighed and snap frozen in liquid nitrogen. The remaining ocular tissues were discarded. Ocular samples were stored −80° C. All samples were placed into individual vials and weighed. Aqueous humor and cornea samples were collected.

in vivo = details: rabbit, topical or ocular, 35 uL of 5 mg/ml solution per eye per dose
Method: as §1, §2, §3

[2] = system: corneal edema following descemetorhexis without endothethelial keratoplasty (DWEK) surgery in rabbits; experiment: Corneal edema and wound healing after DWEK surgery, topical administration, rabbit; type: in vivo
Method: The objective of the present study was to evaluate the efficacy of the α-MSH peptide analogues in reducing corneal edema following descemetorhexis without endothethelial keratoplasty (DWEK) surgery in rabbits. […] Treatment was administered once (QD) or twice daily (BID) with approximately 6-8 hours between each BID dose.
The rabbits were subjected to a surgical procedure prior to administering topical treatment. The animals received buprenorphine (0.01-0.05 mg/kg SC) and were sedated immediately prior to the procedure with ketamine/xylazine cocktail (20-50/4-10 mg/kg IM). Aseptic precautions were taken for the surgical procedure. […] Sterile eyewash was then used to irrigate the ocular surface of the left eye. […] The animal's corneal epithelium was marked with a circular ring (5 mm) to create a template for resection of the host tissue. […] Descemet's membrane was scored peripherally using a reverse Terry-Sinskey hook, and then Descemet's membrane was peeled from the overlying stroma. Descemet's membrane was removed using forceps. Viscoelastic was removed by Irrigation Aspiration (IA) using balanced salt […] (BSS). One (1) ml of epinephrine 1:1000 and 0.5 ml of heparin (10,000 USP units/ml) was added to each 500 ml of irrigation solution (BSS) to facilitate pupil dilation, control inflammation, and reduce fibrin formation. […]

[3] = system: iPSC-derived ocular stem cells (ABC-101); experiment: Apo-ONE Homogeneous Caspase-3/7 assay after A23187 challenge of ocular stem cells; type: cell-based
Source text: To assess the cytoprotective properties of the α-MSH peptide analogues in-vitro the present inventors tested their modulatory influence on reactive oxygen species (ROS) production and caspase activation in response to cellular stress. For these in-vitro challenge assays, the present inventors induced cellular stress using tert-Butyl hydroperoxide (TBHP) or calcium ionophore (A23187), compounds which are respectively known to induce oxidative and metabolic stress. Oxidative stress was correlated to an increase of ROS within cells. […] Within the current assays, the present inventors monitored ROS accumulation and subsequent caspase activity as readouts of cellular stress and eventual cell death. […] Both the ROS and caspase readouts were obtained by using commercially available reagent kits, which are based on a fluorescent indicator readout for each metric per the supplier's protocol. […] Readouts are routinely taken at 80 min and 150 min after incubation is started. Following a similar layout as with the ROS induction assay, the present inventors subsequently assessed induction of Caspase 3/7 activity following a 1 hour challenge with 2.5 uM A23187. Readings from Caspase 3/7 activation were taken at 80 and 150 minutes post-substrate addition and readouts were compared to non-supplemented controls.

[4] = system: iPSC-derived ocular stem cells (ABC-101); experiment: ROS assay after TBHP challenge of ocular stem cells; type: cell-based; details: 550 uM TBHP challenge, ROS at 3 hours and 4 hours, normalized to challenged wells without peptide, FIGS. 7-8
Source text: To assess the cytoprotective properties of the α-MSH peptide analogues in-vitro the present inventors tested their modulatory influence on reactive oxygen species (ROS) production and caspase activation in response to cellular stress. For these in-vitro challenge assays, the present inventors induced cellular stress using tert-Butyl hydroperoxide (TBHP) or calcium ionophore (A23187), compounds which are respectively known to induce oxidative and metabolic stress. Oxidative stress was correlated to an increase of ROS within cells. […] Within the current assays, the present inventors monitored ROS accumulation and subsequent caspase activity as readouts of cellular stress and eventual cell death. […] Both the ROS and caspase readouts were obtained by using commercially available reagent kits, which are based on a fluorescent indicator readout for each metric per the supplier's protocol. […] Since the assay uses a cell-permeable dye, the readout can be performed within live cells and results in a red fluorescent signal (Ex/Em=520/605 nm), which is correlated to the amount of accumulated ROS within each well. Within the present protocol, the inventors read ROS accumulation over time, starting from 1 hour after incubation up to 4 hours post-incubation. The ocular stem cells (ABC-101 cells) were challenged with 550 uM of TBHP and ROS production was assessed over several hours. […]

- Solubility (Solubility comparison): >5000 µg/mL
SMILES: CCCC[C@H](NC(C)=O)C(=O)N[C@H]1CCCCn2cc(nn2)C[C@@H](C(N)=O)NC(=O)[C@H](Cc2c[nH]c3ccccc23)NC(=O)[C@H](CCCNC(=N)N)NC(=O)[C@@H](Cc2ccccc2)NC(=O)[C@H](Cc2cnc[nH]2)NC1=O [Peptide K110, Ac-Nle-[Lys(N3)-His-DPhe-Arg-Trp-Pra]-NH2] (Ac-[Nle][Lys(N3)]H[dF]RW[Pra]-NH2; triazole 2-7)

- aqueous humor (AH) concentrations with repeated dosing [1]: increase with repeated dosing
- level at 24 h (in vivo; K173 Concentrations (ng/mL) in Rabbit Aqueous Humor OD Sample): 3.34 ng/mL
- level at 24 h (in vivo; K173 Concentrations (ng/mL) in Rabbit Aqueous Humor OS Sample): 3.94 ng/mL
SMILES: CCCC[C@H](NC(=O)c1cc(O)cc(O)c1)C(=O)N[C@H]1CCCCn2cc(nn2)C[C@@H](C(N)=O)NC(=O)[C@H](Cc2c[nH]c3ccccc23)NC(=O)[C@H](CCCNC(=N)N)NC(=O)[C@@H](Cc2ccc(F)cc2)NC(=O)[C@H](Cc2c[nH]cn2)NC1=O [Peptide K173, HyBA-Nle-[Lys(N3)-His-Dphe(4-F)-Arg-Trp-Pra]-NH2] ({Benzoyl(3,5-(OH)2)}-[Nle][Lys(N3)]H[dPhe(4-F)]RW[Pra]-NH2; triazole 2-7)
- levels after 24 hours [1]: measurable levels were detected after 24 hours in all dose groups
- ocular surface retention and Tmax ([1]; topical or ocular): prolonged ocular surface retention and Tmax
- wound healing (rate of wound closure, corneal flat mount) ([2]; 3 animals per group, FIGS. 12A, 12B): enhanced wound healing
- corneal edema (corneal stromal thickness by OCT) ([2]; topical 1 mg/ml or 5 mg/ml QD or BID, FIG. 11): decreased corneal edema

SMILES: CCCC[C@H](NC(=O)c1cc(O)cc(O)c1)C(=O)N[C@H]1CCCCn2cc(nn2)C[C@@H](C(N)=O)NC(=O)[C@H](Cc2c[nH]c3ccccc23)NC(=O)[C@H](CCCNC(=N)N)NC(=O)[C@@H](Cc2ccccc2)NC(=O)[C@H](Cc2c[nH]cn2)NC1=O [Peptide K174, HyBA-Nle-[Lys(N3)-His-DPhe-Arg-Trp-Pra]-NH2] ({Benzoyl(3,5-(OH)2)}-[Nle][Lys(N3)]H[dF]RW[Pra]-NH2; triazole 2-7)
- percent increase in caspase activation over control ([3]; 100 nM peptide, A23187 challenge, FIG. 9): lowest percent increase over control
- Caspase 3/7 activity (protection against apoptosis induction) ([3]; 1 hour challenge with 2.5 uM A23187, readings at 80 and 150 minutes, vs non-supplemented controls, FIGS. 9-10): highest degree of protection against apoptosis induction
- protection against ROS accumulation [4]: protective against ROS accumulation down to the low pM range
